The values that follow come from article PMC11859928, “Design, Synthesis, and Antiproliferative Activity of Novel Indole/1,2,4-Triazole Hybrids as Tubulin Polymerization Inhibitors” (Pharmaceuticals, 2025).

One test concerns SR. The test is described as follows: NCI one-dose assay. Particulars: Homo sapiens, Leukemia, read-out: Cell growth inhibition %. The class given is cell-based.
The subject of a further test is SK-MEL-5. The test is described as follows: NCI one-dose assay. The format is cell-based. Particulars: Homo sapiens, SK-MEL-5, Melanoma, read-out: Cell growth inhibition %.
The subject of the next test is SF-539. The test is described as follows: NCI one-dose assay. The format is cell-based. The conditions noted are these: Homo sapiens, SF-539, CNS cancer, read-out: Cell growth inhibition %.
The subject of a further test is IGROV1. Kind of test: NCI one-dose assay. The format is cell-based. The conditions noted are these: Homo sapiens, IGROV-1, IGROV1, Ovarian cancer, read-out: Cell growth inhibition %.
The subject of a further test is MOLT-4. The test is described as follows: NCI one-dose assay. The format is cell-based. Particulars: Homo sapiens, MOLT-4, Leukemia, read-out: Cell growth inhibition %.
The next test concerns HS 578 T. The test is described as follows: NCI one-dose assay. The format is cell-based. The conditions noted are these: Homo sapiens, Breast cancer, read-out: Cell growth inhibition %.
For the next test, the system named is A549/ATCC. Kind of test: NCI one-dose assay. The format is cell-based. Particulars: Homo sapiens, Non-small cell lung cancer, read-out: Cell growth inhibition %.
In the next test the test system is MDA-MB-435. Kind of test: NCI one-dose assay. The format is cell-based. The conditions noted are these: Homo sapiens, MDA-MB-435, Melanoma, read-out: Cell growth inhibition %.
Another test relates to UACC-62. Kind of test: NCI one-dose assay. The format is cell-based. The conditions noted are these: Homo sapiens, UACC-62, Melanoma, read-out: Cell growth inhibition %.
The subject of another test is SK-OV-3. Kind of test: NCI one-dose assay. The format is cell-based. The conditions noted are these: Homo sapiens, SK-OV-3, Ovarian cancer, read-out: Cell growth inhibition %.
The test system of the next test is BT-549. The test is described as follows: NCI one-dose assay. The format is cell-based. The conditions noted are these: Homo sapiens, BT-549, Breast cancer, read-out: Cell growth inhibition %.
The next test deals with HT29. Kind of test: NCI one-dose assay. Particulars: Homo sapiens, HT-29, HT29, Colon cancer, read-out: Cell growth inhibition %. The format is cell-based.
In another test the test system is OVCAR-8. The test is described as follows: NCI one-dose assay. The class given is cell-based. Particulars: Homo sapiens, OVCAR-8, Ovarian cancer, read-out: Cell growth inhibition %.
In the next test the test system is MDA-MB-231/ATCC. The test is described as follows: NCI one-dose assay. The class given is cell-based. The conditions noted are these: Homo sapiens, Breast cancer, read-out: Cell growth inhibition %.
The test system of another test is RXF 393. The test is described as follows: NCI one-dose assay. Particulars: Homo sapiens, RXF 393, Renal cancer, read-out: Cell growth inhibition %. The format is cell-based.
Another test deals with MDA-MB-468. The test is described as follows: NCI one-dose assay. The conditions noted are these: Homo sapiens, MDA-MB-468, Breast cancer, read-out: Cell growth inhibition %. The format is cell-based.
The test system of a further test is SF-268. Kind of test: NCI one-dose assay. Particulars: Homo sapiens, SF-268, CNS cancer, read-out: Cell growth inhibition %. The format is cell-based.
The test system of a further test is SF-295. The test is described as follows: NCI one-dose assay. The format is cell-based. The conditions noted are these: Homo sapiens, SF-295, CNS cancer, read-out: Cell growth inhibition %.
The next test concerns M14. The test is described as follows: NCI one-dose assay. The class given is cell-based. The conditions noted are these: Homo sapiens, M14, Melanoma, read-out: Cell growth inhibition %.
The next test relates to NCI-H460. Kind of test: NCI one-dose assay. The class given is cell-based. Particulars: Homo sapiens, NCI-H460, Non-small cell lung cancer, read-out: Cell growth inhibition %.
The subject of a further test is EKVX. Kind of test: NCI one-dose assay. Particulars: Homo sapiens, Non-small cell lung cancer, read-out: Cell growth inhibition %. The class given is cell-based.
The test system of a further test is HCT-15. Kind of test: NCI one-dose assay. The class given is cell-based. Particulars: Homo sapiens, HCT-15, Colon cancer, read-out: Cell growth inhibition %.
In the next test the test system is NCI/ADR-RES. The test is described as follows: NCI one-dose assay. The format is cell-based. The conditions noted are these: Homo sapiens, Ovarian cancer, read-out: Cell growth inhibition %.
In the next test the test system is NCI 60 cell lines. The test is described as follows: NCI one-dose assay, full panel. The class given is cell-based, human. Particulars: across all cell lines, 10 µM. On the procedure:
The National Cancer Institute (NCI), Bethesda, USA, selected the final compounds 6a–j and 7a–j for in vitro anticancer screening. An initial in vitro single-dose anticancer experiment was performed with the entire NCI 60 cell lines derived from nine tumor subpanel cancer cell lines. The results for each compound were illustrated as a mean graph showing the percentage growth of treated cells compared to untreated control cells (see Supplementary Materials).
The NCI anticancer screening process has been thoroughly detailed. The Drug Evaluation Branch of the National Cancer Institute in Bethesda, […], USA, established the procedure and conducted the anticancer assay on 60 human tumor cell lines from nine neoplastic cancers.

For orientation: inhibition means the relative decrease from the control value, in per cent. `C=CCn1c(SCC(=O)c2ccccc2)nnc1-c1c[nH]c2ccccc12` [Compound 6a, 2-((4-Allyl-5-(1H-indol-3-yl)-4H-1,2,4-triazol-3-yl)thio)-1-phenylethanone]: the inhibition at 10 µM came out at 23.5% in the test with SR; 3.38% with SK-MEL-5; 2.68% in the test on SF-539; 11.6% with IGROV1; 7.17% with MOLT-4; 2.96% in the test on HS 578 T. For the same compound, the inhibition at 10 µM in the test with A549/ATCC was -0.25%; in the test with MDA-MB-435 it was -5.02%; in the test with UACC-62 it was 18.5%; in the test on SK-OV-3 it was -20.4%; in the test with BT-549, -9.39%; in the test with HT29 it was -11.8%. The inhibition at 10 µM was 4.58% in the test with OVCAR-8; 11.2% in the test with MDA-MB-231/ATCC; -2.2% in the test on RXF 393; 12.3% with MDA-MB-468; -1.91% with SF-268; 3.79% in the test on SF-295. The inhibition at 10 µM is 2.35% in the test on M14; -6.84% in the test with NCI-H460; 4.22% in the test with EKVX; 4% with HCT-15; 2.62% with NCI/ADR-RES.
With `C=CCn1c(SCC(=O)c2ccc(OC)cc2)nnc1-c1c[nH]c2ccccc12` [Compound 6b, 2-((4-Allyl-5-(1H-indol-3-yl)-4H-1,2,4-triazol-3-yl)thio)-1-(4-methoxyphenyl) Ethenone], the inhibition at 10 µM was 18.5% in the test with SR; 3.34% in the test with SK-MEL-5; 1.18% with SF-539; 11.1% in the test on IGROV1; 6.64% in the test with MOLT-4; 0.85% in the test on HS 578 T. The inhibition at 10 µM in the test with A549/ATCC is -8.47%; in the test on MDA-MB-435, -8.45%; in the test on UACC-62, 15.6%; in the test on SK-OV-3, -30.5%; with BT-549, -1.84%; in the test on HT29, -12.7%. Moreover, the inhibition at 10 µM in the test on OVCAR-8 was 4.99%; with MDA-MB-231/ATCC it was 11.1%; in the test on RXF 393, -5.88%; in the test on MDA-MB-468, 5.01%; in the test on SF-268 it was -8.99%; in the test on SF-295 it was 2.91%. The inhibition at 10 µM is -1.55% in the test with M14; -1.3% with NCI-H460; 3.03% with EKVX; 2.44% with HCT-15; -3.74% with NCI/ADR-RES. In addition, the “anticancer activity (in words)” value in the test with NCI 60 cell lines was “minimal anticancer activity”.
With `C=CCn1c(SCC(=O)c2ccc(C)cc2)nnc1-c1c[nH]c2ccccc12` [Compound 6c, 2-((4-allyl-5-(1H-indol-3-yl)-4H-1,2,4-triazol-3-yl)thio)-1-(p-tolyl)ethanone], the inhibition at 10 µM was 8.97% with SR; 6.71% in the test with SK-MEL-5; 1.45% in the test with SF-539; 19.6% with IGROV1; 9.13% in the test with MOLT-4; -2.83% with HS 578 T. In addition, the inhibition at 10 µM is 5.97% with A549/ATCC; -2.15% in the test on MDA-MB-435; 24.7% with UACC-62; -22.4% in the test with SK-OV-3; 2.35% with BT-549; -6.98% in the test with HT29. The inhibition at 10 µM was 10.4% with OVCAR-8; 11.5% in the test on MDA-MB-231/ATCC; -0.07% in the test with RXF 393; 12.5% in the test with MDA-MB-468; -3.82% in the test on SF-268; 3.28% in the test on SF-295. The inhibition at 10 µM in the test with M14 came to 4.78%; in the test with NCI-H460, 1.59%; with EKVX, 8.94%; with HCT-15 it was 6.36%; with NCI/ADR-RES it was 4.65%.
For the compound `C=CCn1c(SCC(=O)c2ccc(Br)cc2)nnc1-c1c[nH]c2ccccc12` [Compound 6d, 2-((4-Allyl-5-(1H-indol-3-yl)-4H-1,2,4-triazol-3-yl)thio)-1-(4-bromophenyl)ethenone], the inhibition at 10 µM is 11.3% in the test on SR; 4.07% in the test with SK-MEL-5; 8.23% in the test with SF-539; 13.3% in the test on IGROV1; 8.82% in the test with MOLT-4; -5.71% with HS 578 T. In addition, the inhibition at 10 µM in the test on A549/ATCC is -3.29%; in the test on MDA-MB-435 it was -8.05%; in the test on UACC-62, 16.9%; in the test on SK-OV-3 it was -13.1%; in the test with BT-549, -5.98%; in the test on HT29 it was -4.18%. Besides, the inhibition at 10 µM in the test with OVCAR-8 is 5.3%; in the test on MDA-MB-231/ATCC, 3.15%; in the test on RXF 393, -12.8%; in the test on MDA-MB-468, 13.1%; in the test with SF-268 it was -1.95%; in the test on SF-295, 6.78%. Also, the inhibition at 10 µM in the test with M14 was 2.64%; in the test on NCI-H460 it was -6.13%; with EKVX, 7.22%; with HCT-15 it was 0.98%; in the test with NCI/ADR-RES, 1.17%. The “anticancer activity (in words)” value in the test on NCI 60 cell lines is given as “minimal anticancer activity”.
Consider `C=CCn1c(SC/C(=N\O)c2ccc(C)cc2)nnc1-c1c[nH]c2ccccc12` [Compound 7c, (Z)-2-((4-allyl-5-(1H-indol-3-yl)-4H-1,2,4-triazol-3-yl)thio)-1-(p-tolyl)ethanone Oxime], for which the inhibition at 10 µM is 16.5% in the test on SR; 11.1% in the test on SK-MEL-5; -1.42% in the test with SF-539; 23.2% in the test with IGROV1; 20.4% in the test on MOLT-4; 6.55% with HS 578 T. Moreover, the inhibition at 10 µM in the test on A549/ATCC is 4.9%; in the test with MDA-MB-435, -2.07%; with UACC-62, 30.9%; in the test on SK-OV-3, -0.26%; in the test on BT-549, -7.22%; in the test on HT29, -4.09%. Moreover, the inhibition at 10 µM is 8.49% in the test with OVCAR-8; 4.01% with MDA-MB-231/ATCC; -5.46% with RXF 393; 27.1% in the test on MDA-MB-468; 3.63% in the test with SF-268; 15.1% in the test with SF-295. For the same compound, the inhibition at 10 µM with M14 came out at 5.59%; in the test with NCI-H460, 9.2%; in the test with EKVX, 17.7%; in the test with HCT-15 it was 11.3%; in the test with NCI/ADR-RES it was 1.27%.
